Literature values in patent US10376473B2, “Transdermal adhesive compositions, devices, and methods” (priority 2010, dated 2019).
Like-named read-outs stand apart in the source and are kept apart here.

Settings: after 2 months at 60° C.

CCN(C)C(=O)Oc1cccc([C@H](C)N(C)C)c1 [(S)—N-ethyl-3-[(1-dimethylamino)ethyl]-N-methylphenyl carbamate]
degradation products (composition with 0.1% tocopherol (antioxidant)): 1.3% | degradation products (composition without the antioxidant): 4.46%
